Assay results taken from ChEMBL document CHEMBL4507268 (2021).

What was measured:
[1] = molecular target: Mitogen-activated protein kinase kinase kinase 4 (Homo sapiens) (UniProt Q9Y6R4); details: Compound concentration 1000.0 nM
[2] = molecular target: STE20/SPS1-related proline-alanine-rich protein kinase (Homo sapiens) (UniProt Q9UEW8); details: Compound concentration 1000.0 nM
[3] = molecular target: Atypical kinase COQ8B, mitochondrial (Homo sapiens) (UniProt Q96D53); details: Compound concentration 1000.0 nM
[4] = molecular target: Serine/threonine-protein kinase ULK1 (Homo sapiens) (UniProt O75385); details: Compound concentration 1000.0 nM
[5] = molecular target: T1, Ephrin type-A receptor 8 (Homo sapiens) (UniProt P29322); details: Compound concentration 1000.0 nM
T1 sequence (whole entry): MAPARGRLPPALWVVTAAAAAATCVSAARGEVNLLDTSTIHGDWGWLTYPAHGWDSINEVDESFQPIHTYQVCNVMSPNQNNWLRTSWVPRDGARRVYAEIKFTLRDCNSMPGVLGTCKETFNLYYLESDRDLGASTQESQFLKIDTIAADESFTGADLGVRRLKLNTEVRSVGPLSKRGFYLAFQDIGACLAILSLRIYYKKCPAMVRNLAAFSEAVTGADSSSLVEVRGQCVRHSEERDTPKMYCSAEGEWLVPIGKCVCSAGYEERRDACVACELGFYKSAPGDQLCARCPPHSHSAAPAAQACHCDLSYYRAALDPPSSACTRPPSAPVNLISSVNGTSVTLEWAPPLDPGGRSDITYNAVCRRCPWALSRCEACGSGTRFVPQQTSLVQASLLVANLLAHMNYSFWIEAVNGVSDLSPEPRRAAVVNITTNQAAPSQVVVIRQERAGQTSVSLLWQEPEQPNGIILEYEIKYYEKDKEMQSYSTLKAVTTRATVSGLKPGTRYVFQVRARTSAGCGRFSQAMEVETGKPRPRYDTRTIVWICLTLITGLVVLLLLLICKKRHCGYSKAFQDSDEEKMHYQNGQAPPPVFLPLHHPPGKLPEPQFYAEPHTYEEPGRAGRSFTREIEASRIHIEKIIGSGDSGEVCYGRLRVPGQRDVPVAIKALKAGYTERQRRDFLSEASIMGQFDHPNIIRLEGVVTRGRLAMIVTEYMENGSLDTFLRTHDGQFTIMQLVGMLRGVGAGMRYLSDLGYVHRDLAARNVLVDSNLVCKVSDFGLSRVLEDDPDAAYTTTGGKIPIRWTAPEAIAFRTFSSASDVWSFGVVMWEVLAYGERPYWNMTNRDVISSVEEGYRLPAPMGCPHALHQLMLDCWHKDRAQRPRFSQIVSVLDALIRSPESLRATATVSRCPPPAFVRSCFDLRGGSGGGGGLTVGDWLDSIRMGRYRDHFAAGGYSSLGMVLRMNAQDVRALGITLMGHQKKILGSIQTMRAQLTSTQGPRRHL

[6] = tested on: Receptor-type tyrosine-protein kinase FLT3 (Homo sapiens), P36888 [D835H]; details: Compound concentration 1000.0 nM
[7] = molecular target: Ribosomal protein S6 kinase alpha-4 (Homo sapiens) (UniProt O75676); details: Compound concentration 1000.0 nM
[8] = molecular target: Muscarinic acetylcholine receptor M3 (Homo sapiens) (UniProt P20309); details: Compound concentration 10.0 uM
[9] = molecular target: Serine/threonine-protein kinase 33 (Homo sapiens) (UniProt Q9BYT3); details: Compound concentration 1000.0 nM
[10] = tested on: Epidermal growth factor receptor (Homo sapiens), P00533 [UNDEFINED MUTATION]; details: Compound concentration 1000.0 nM
[11] = molecular target: Cyclin-dependent kinase 15 (Homo sapiens) (UniProt Q96Q40); details: Compound concentration 1000.0 nM
[12] = molecular target: Bone morphogenetic protein receptor type-1B (Homo sapiens) (UniProt O00238); details: Compound concentration 1000.0 nM
[13] = tested on: Phosphatidylinositol 4,5-bisphosphate 3-kinase catalytic subunit alpha isoform (Homo sapiens), P42336 [C420R]; details: Compound concentration 1000.0 nM
[14] = molecular target: Macrophage colony-stimulating factor 1 receptor (Homo sapiens) (UniProt P07333); details: Compound concentration 1000.0 nM
[15] = molecular target: Aurora kinase B (Homo sapiens) (UniProt Q96GD4); details: Compound concentration 1000.0 nM
[16] = molecular target: Phosphatidylinositol 5-phosphate 4-kinase type-2 gamma (Homo sapiens) (UniProt Q8TBX8); details: Compound concentration 1000.0 nM
[17] = molecular target: Receptor tyrosine-protein kinase erbB-2 (Homo sapiens) (UniProt P04626); details: Compound concentration 1000.0 nM
[18] = molecular target: GABA-A receptor; anion channel (Rattus norvegicus) (UniProt O09028+P15431+P18506+P18508+P19969+P20236+P23574+P23576+P28471+P28473+P30191+P62813+P63079+P63138+Q91ZM7+Q9ES14); details: Compound concentration 10.0 uM
[19] = molecular target: Macrophage colony-stimulating factor 1 receptor (Homo sapiens) (UniProt P07333); details: Compound concentration 1000.0 nM; remark: listed apart in the source
[20] = molecular target: MAP kinase-activated protein kinase 2 (Homo sapiens) (UniProt P49137); details: Compound concentration 1000.0 nM
[21] = molecular target: Muscarinic acetylcholine receptor M5 (Homo sapiens) (UniProt P08912); details: Compound concentration 10.0 uM
[22] = molecular target: ALK tyrosine kinase receptor (Homo sapiens) (UniProt Q9UM73); details: Compound concentration 1000.0 nM
[23] = tested on: Receptor-type tyrosine-protein kinase FLT3 (Homo sapiens), P36888 [UNDEFINED MUTATION]; details: Compound concentration 1000.0 nM
[24] = molecular target: Rho-associated protein kinase 1 (Homo sapiens) (UniProt Q13464); details: Compound concentration 1000.0 nM
[25] = molecular target: Transient receptor potential cation channel subfamily M member 6 (Homo sapiens) (UniProt Q9BX84); details: Compound concentration 1000.0 nM
[26] = tested on: Phosphatidylinositol 4,5-bisphosphate 3-kinase catalytic subunit alpha isoform (Homo sapiens), P42336 [H1047Y]; details: Compound concentration 1000.0 nM
Chain of Phosphatidylinositol 4,5-bisphosphate 3-kinase catalytic subunit alpha isoform (Homo sapiens), P42336 [H1047Y] (P42336 whole entry H1047Y, canonical isoform): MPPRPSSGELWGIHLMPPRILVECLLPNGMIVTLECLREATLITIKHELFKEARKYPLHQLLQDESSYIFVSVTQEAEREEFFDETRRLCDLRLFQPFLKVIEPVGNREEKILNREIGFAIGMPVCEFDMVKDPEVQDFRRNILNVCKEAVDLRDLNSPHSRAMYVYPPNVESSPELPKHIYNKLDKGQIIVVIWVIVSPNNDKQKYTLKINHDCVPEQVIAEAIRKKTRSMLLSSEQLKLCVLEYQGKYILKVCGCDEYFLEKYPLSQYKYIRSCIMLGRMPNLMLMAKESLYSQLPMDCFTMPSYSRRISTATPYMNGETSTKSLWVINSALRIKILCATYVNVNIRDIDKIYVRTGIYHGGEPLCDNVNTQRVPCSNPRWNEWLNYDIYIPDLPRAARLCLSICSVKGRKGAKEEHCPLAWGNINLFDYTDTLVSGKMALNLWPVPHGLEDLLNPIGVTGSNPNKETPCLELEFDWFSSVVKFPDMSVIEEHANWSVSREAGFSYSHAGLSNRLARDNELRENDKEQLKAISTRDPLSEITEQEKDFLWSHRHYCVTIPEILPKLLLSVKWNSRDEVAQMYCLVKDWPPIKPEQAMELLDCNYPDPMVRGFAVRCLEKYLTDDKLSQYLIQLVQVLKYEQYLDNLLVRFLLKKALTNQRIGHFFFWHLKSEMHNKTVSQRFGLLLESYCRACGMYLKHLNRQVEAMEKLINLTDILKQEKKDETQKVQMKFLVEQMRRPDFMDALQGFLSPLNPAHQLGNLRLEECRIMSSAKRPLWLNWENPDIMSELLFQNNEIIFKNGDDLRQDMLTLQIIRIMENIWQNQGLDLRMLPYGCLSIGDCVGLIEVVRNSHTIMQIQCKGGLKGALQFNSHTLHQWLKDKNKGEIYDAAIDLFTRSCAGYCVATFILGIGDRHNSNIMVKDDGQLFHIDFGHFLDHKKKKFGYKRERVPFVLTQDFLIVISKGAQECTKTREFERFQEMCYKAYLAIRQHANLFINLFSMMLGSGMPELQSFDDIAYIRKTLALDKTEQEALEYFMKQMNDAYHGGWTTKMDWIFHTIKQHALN

Chain of Macrophage colony-stimulating factor 1 receptor (Homo sapiens) (P07333 whole entry): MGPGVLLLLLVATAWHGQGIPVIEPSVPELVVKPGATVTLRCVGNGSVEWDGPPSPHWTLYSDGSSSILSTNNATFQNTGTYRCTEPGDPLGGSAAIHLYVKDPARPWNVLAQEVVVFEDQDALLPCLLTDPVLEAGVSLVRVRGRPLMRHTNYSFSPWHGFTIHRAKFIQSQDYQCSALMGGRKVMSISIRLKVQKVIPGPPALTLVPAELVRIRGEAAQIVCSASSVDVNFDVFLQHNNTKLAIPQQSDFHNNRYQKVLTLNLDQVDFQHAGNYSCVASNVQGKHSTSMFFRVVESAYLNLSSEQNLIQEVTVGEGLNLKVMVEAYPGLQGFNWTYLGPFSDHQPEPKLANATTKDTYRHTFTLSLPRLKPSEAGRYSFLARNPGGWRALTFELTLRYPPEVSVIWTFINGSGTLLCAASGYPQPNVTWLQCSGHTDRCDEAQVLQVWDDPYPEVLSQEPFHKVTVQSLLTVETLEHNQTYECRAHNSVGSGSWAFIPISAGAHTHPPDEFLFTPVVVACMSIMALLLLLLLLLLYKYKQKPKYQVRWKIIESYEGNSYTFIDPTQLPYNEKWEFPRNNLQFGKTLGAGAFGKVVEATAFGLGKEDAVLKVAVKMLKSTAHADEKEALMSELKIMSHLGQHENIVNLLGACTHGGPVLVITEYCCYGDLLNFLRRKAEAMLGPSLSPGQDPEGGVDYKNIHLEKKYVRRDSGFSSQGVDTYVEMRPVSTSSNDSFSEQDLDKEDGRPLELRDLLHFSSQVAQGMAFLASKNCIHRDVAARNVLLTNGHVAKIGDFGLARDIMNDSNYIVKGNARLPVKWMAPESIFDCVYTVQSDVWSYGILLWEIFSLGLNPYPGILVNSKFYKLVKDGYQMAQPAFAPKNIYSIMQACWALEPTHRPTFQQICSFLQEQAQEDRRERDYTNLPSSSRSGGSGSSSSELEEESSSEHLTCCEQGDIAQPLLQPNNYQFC
Chain of Epidermal growth factor receptor (Homo sapiens), P00533 [UNDEFINED MUTATION] (P00533 whole entry, looked up, change not shown): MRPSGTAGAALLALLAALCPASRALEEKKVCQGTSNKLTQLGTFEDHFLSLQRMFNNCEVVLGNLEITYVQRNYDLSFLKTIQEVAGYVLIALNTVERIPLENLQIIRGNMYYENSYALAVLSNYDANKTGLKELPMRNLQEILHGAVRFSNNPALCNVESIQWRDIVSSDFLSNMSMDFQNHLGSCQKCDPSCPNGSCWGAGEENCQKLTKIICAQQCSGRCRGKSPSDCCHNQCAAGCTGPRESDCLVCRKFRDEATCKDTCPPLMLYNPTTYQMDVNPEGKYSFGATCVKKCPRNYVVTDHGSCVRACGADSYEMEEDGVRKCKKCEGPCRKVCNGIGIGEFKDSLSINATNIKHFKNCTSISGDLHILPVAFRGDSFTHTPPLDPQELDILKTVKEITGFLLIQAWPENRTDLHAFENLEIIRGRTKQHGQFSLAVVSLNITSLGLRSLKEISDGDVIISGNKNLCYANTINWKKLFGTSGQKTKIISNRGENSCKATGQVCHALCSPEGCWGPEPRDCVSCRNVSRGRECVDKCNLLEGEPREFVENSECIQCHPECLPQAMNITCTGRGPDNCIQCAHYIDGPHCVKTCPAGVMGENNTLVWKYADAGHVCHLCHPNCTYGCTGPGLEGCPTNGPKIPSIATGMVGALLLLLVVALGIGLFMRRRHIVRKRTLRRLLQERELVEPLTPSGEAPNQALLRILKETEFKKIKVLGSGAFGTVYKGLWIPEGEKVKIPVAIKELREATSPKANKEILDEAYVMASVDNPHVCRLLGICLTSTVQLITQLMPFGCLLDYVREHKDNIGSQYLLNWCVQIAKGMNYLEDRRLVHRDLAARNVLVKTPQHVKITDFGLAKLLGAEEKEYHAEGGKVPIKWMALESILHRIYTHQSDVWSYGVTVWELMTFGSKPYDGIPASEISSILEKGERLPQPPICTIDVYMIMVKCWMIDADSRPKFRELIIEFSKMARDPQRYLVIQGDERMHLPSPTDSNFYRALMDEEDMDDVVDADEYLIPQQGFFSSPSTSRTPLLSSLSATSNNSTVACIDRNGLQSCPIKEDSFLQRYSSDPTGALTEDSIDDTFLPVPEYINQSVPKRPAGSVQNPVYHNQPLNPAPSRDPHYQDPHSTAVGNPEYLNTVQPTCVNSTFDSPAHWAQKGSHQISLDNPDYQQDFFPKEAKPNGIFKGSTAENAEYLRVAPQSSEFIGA
Chain of Muscarinic acetylcholine receptor M3 (Homo sapiens) (P20309 whole entry, looked up): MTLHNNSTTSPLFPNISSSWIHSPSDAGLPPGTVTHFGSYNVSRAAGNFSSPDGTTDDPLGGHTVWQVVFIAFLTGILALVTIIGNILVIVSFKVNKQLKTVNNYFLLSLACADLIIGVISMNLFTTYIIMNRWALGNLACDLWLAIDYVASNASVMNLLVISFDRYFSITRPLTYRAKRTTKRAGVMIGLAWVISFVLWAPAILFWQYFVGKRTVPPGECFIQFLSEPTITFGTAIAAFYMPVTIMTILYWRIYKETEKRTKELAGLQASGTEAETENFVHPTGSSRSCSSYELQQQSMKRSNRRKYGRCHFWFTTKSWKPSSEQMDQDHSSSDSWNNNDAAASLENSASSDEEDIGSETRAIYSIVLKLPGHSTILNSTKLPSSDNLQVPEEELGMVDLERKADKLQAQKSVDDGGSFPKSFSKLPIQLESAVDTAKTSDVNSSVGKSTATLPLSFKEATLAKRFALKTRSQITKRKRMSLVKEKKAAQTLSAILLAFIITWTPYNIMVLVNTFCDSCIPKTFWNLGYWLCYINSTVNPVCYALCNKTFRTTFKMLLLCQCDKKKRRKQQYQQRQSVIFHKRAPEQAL
Chain of Phosphatidylinositol 5-phosphate 4-kinase type-2 gamma (Homo sapiens) (Q8TBX8 whole entry): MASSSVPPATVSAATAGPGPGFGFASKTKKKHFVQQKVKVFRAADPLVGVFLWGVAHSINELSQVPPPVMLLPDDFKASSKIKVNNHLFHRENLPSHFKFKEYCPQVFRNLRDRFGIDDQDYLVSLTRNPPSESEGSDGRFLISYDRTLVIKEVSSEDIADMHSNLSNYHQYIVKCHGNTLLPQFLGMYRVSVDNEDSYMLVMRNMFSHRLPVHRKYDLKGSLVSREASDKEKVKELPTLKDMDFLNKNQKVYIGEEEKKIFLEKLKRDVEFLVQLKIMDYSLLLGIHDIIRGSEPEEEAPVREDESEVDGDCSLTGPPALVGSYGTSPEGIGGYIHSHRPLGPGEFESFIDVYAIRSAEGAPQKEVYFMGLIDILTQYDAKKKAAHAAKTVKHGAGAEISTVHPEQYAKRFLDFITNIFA
Chain of Ribosomal protein S6 kinase alpha-4 (Homo sapiens) (O75676 whole entry, looked up): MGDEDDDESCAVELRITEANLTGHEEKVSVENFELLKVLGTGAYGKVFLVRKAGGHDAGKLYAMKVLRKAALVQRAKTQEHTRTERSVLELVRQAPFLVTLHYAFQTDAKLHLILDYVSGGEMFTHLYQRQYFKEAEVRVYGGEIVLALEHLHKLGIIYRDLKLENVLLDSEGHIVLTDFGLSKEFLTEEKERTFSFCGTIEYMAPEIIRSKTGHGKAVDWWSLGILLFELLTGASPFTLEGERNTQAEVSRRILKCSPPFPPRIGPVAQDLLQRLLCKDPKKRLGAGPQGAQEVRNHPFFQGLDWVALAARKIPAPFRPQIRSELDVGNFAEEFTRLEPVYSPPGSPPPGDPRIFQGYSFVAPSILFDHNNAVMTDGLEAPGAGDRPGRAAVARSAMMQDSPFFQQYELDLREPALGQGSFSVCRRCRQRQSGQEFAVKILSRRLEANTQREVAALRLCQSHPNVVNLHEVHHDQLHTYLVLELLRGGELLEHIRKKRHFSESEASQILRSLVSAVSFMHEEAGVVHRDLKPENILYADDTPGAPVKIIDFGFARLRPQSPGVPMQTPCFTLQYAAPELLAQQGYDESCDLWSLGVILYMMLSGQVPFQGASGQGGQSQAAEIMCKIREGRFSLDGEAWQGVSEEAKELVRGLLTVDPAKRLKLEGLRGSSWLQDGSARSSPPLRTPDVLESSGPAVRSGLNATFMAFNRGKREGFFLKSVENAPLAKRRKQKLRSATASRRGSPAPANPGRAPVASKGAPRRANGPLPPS

| SMILES | residual activity [1] [%] | residual activity [2] [%] | residual activity [3] [%] | residual activity [4] [%] | residual activity [5] [%] | residual activity [6] [%] | residual activity [7] [%] | inhibition [8] [%] | residual activity [9] [%] | residual activity [10] [%] | residual activity [11] [%] | residual activity [12] [%] | residual activity [13] [%] | residual activity [14] [%] | residual activity [15] [%] | residual activity [16] [%] | residual activity [17] [%] | inhibition [18] [%] | residual activity [19] [%] | residual activity [20] [%] | other results |
| --- | --- | --- | --- | --- | --- | --- | --- | --- | --- | --- | --- | --- | --- | --- | --- | --- | --- | --- | --- | --- | --- |
| Cc1nc(C2CCN(C(=O)c3ccc(OC(F)(F)F)cc3N)CC2)c2ncc(N3CCN(C)CC3)cc2n1 [BAY-693] | 100 | 100 | 93 | 49 | 98 | 69 | 100 | 18.6 | 100 | 100 | 100 | 93 | 86 | 94 | 88 | 100 | 100 | -1.64 | 99 | 100 | inhibition [21]: -3.81%; residual activity [22]: 89%; residual activity [23]: 86%; residual activity [24]: 100%; residual activity [25]: 100%; residual activity [26]: 69% |
| CN1CCN(c2cnc3c(C4CCN(C(=O)c5ccc(OC(F)(F)F)cc5N)CC4)ncnc3c2)CC1 [BAY-885] | 95 | 81 | 100 | 100 | 100 | 75 | 100 | 27.1 | 99 | 100 | 100 | 100 | 94 | 92 | 90 | 100 | 100 | 0.38 | 100 | 100 | inhibition [21]: 2.02%; residual activity [22]: 99%; residual activity [23]: 93%; residual activity [24]: 100%; residual activity [25]: 100%; residual activity [26]: 92% |
